Literature values in patent publication EP0266006A2, “Novel hypotensive diuretic peptides” (SHIONOGI SEIYAKU KABUSHIKI KAISHA trading under the name of …, priority 1986, dated 1988).
Where no end group is shown, it is not given here.

Conditions: said to be so, unlike α type or γ type

## β-hANP: antiparallel dimer of α-hANP (SLRRSSCFGGRMDRIGAQSGLGCNSFRY; ends and bridges not checked; also: antiparallel dimer of α-hANP; UniProt P01160 124-151, looked up)
  diuretic action (duration): persistent
